Patent publication US20230183245A1, “IMIDAZO-PYRIMIDONE COMPOUNDS AS PESTICIDES” (BASF SE, priority 2020, published 2023)
Read-outs that look alike come from different tables or passages of the source.

Legend:
Format in all cases: in vivo
Nezara viridula = assay: Green soldier stink bug (Nezara viridula) soybean pod spray test; details: 120 h, 5 days, late 3rd instar, read-out: Percent mortality in comparison with untreated controls
Procedure: (§1) If not otherwise specified, the test solutions are prepared as follows: The active compound is dissolved at the desired concentration in a mixture of 1:1 (vol:vol) distilled water: acteone. The test solution is prepared at the day of use. Test solutions are prepared in general at concentrations of 2500 ppm, 1415 ppm and 800 ppm (wt/vol).
The active compound is dissolved at the desired concentration in a mixture of 1:1 (vol:vol) distilled water: aceteone. Surfactant (Kinetic) is added at a rate of 0.01% (vol/vol).The test solution is prepared at the day of use. Soybean pods are placed in 90 × 50 mm glass Petri dishes lined with moistened filter paper and inoculated with ten late 3rd instar N. viridula. Using a hand atomizer, an approximately 2 ml solution is sprayed into each Petri dish. Treated set-up is kept at about 25-26° C. and relative humidity of about 65-70%. Percent mortality is recorded after 5 days.

[1] = system: Trialeurodes vaporariorum; assay: Greenhouse whitefly (Trialeurodes vaporariorum) egg plant leaf disk test; details: foliar, 144 h, 6 days, read-out: Mortality of hatched crawlers in comparison with untreated controls
Procedure: as §1
For evaluating control of Greenhouse Whitefly (Trialeurodes vaporariorum) the test unit consisted of 96-well-microtiter plates containing a leaf disk of egg plant leaf disk with white fly eggs. The compounds or mixtures were formulated using a solution containing 75% water and 25% DMSO. Different concentrations of formulated were sprayed onto the insect diet at 2.5 µl, using a custom built micro atomizer, at two replications. After application, microtiter plates were incubated at 23 ± 1° C., 65 ± 5% RH for 6 days. Mortality of hatched crawlers was then visually assessed.

Myzus persicae = assay: Green peach aphid (Myzus persicae) systemic artificial diet test; details: 72 h, read-out: Aphid mortality in comparison with untreated controls
Procedure: as §1
For evaluating control of green peach aphid (Myzus persicae) through systemic means the test unit consisted of 96-well-microtiter plates containing liquid artificial diet under an artificial membrane. The compounds were formulated using a solution containing 75% v/v water and 25% v/v DMSO. Different concentrations of formulated compounds were pipetted into the aphid diet, using a custom built pipetter, at two replications. After application, 5 - 8 adult aphids were placed on the artificial membrane inside the microtiter plate wells. The aphids were then allowed to suck on the treated aphid diet and incubated at about 23 ± 1° C. and about 50 ± 5 % relative humidity for 3 days. Aphid mortality and fecundity was then visually assessed.

Heliothis virescens = assay: Tobacco budworm (Heliothis virescens) microtiter diet test; details: 120 h, read-out: Egg and larval mortality in comparison with untreated controls
Procedure: as §1
(§2) For evaluating control of tobacco budworm (Heliothis virescens) the test unit consisted of 96-well-microtiter plates containing an insect diet and 15-25 H. virescens eggs. The compounds were formulated using a solution containing 75% v/v water and 25% v/v DMSO. Different concentrations of formulated compounds were sprayed onto the insect diet at 10 µl, using a custom built micro atomizer, at two replications. After application, microtiter plates were incubated at about 28 ± 1° C. and about 80 ± 5% relative humidity for 5 days. Egg and larval mortality was then visually assessed.

Anthonomus grandis = assay: Boll weevil (Anthonomus grandis) microtiter diet test; details: 120 h, read-out: Egg and larval mortality in comparison with untreated controls
Procedure: as §1
as §2, with “boll weevil (Anthonomus grandis)” for “tobacco budworm (Heliothis virescens)”, “5-10 A. grandis” for “15-25 H. virescens”, “5” for “10”, “25” for “28”, “75” for “80”

Aedes aegypti = assay: whole plant or invertebrate; details: 48 h, 2 days, freshly hatched larvae, read-out: Larval mortality in comparison with untreated controls
Procedure: as §1
For evaluating control of yellow fever mosquito (Aedes aegypti) the test unit consisted of 96-well-microtiter plates containing 200 µl of tap water per well and 5-15 freshly hatched A. aegypti larvae. The active compounds were formulated using a solution containing 75% (v/v) water and 25% (v/v) DMSO. Different concentrations of formulated compounds or mixtures were sprayed onto the […] at 2.5 µl, using a custom built micro atomizer, at two replications. After application, microtiter plates were incubated at 28 + 1° C., 80 + 5% RH for 2 days. Larval mortality was then visually assessed.

Megoura viciae = assay: Vetch aphid (Megoura viciae) broad bean leaf disk test; details: foliar, 120 h, 5 days, adult aphids on treated leaf disks, read-out: Aphid mortality in comparison with untreated controls
Procedure: as §1
For evaluating control of vetch aphid (Megoura viciae) through contact or systemic means the test unit consisted of 24-well-microtiter plates containing broad bean leaf disks.
The compounds were formulated using a solution containing 75% v/v water and 25% v/v DMSO. Different concentrations of formulated compounds were sprayed onto the leaf disks at 2.5 µl, using a custom built micro atomizer, at two replications. After application, the leaf disks were air-dried and 5 - 8 adult aphids placed on the leaf disks inside the microtiter plate wells. The aphids were then allowed to suck on the treated leaf disks and incubated at about 23 ± 1° C. and about 50 ± 5% relative humidity for 5 days. Aphid mortality and fecundity was then visually assessed.

[2] = 800 ppm, 3 days, adult aphids on treated diet
[3] = 3 days, adult aphids on treated diet

CCS(=O)(=O)c1cc(/C(C#N)=N/OCC2CC2)cnc1-c1cn2c(=O)n(C3CC3)c(C(F)(F)F)cc2n1 [Compound C-11]
> 75%: mortality at 800 ppm (Nezara viridula) | mortality at 800 ppm [1] | mortality at 800 ppm (Myzus persicae; [2]) | mortality at 800 ppm (Heliothis virescens; 800 ppm, 5 days) | mortality at 800 ppm (Anthonomus grandis; 800 ppm, 5 days) | mortality at 800 ppm (Aedes aegypti)

CCS(=O)(=O)c1cc(C2=NOC3(CCCC3)C2)cnc1-c1cn2c(=O)n(C3CC3)c(C(F)(F)F)cc2n1 [Compound C-13, 6-cyclopropyl-2-[3-ethylsulfonyl-5-(1-oxa-2-azaspiro[4.4]non-2-en-3-yl)-2-pyridyl]-7-(trifluoromethyl)imidazo[1,2-c]pyrimidin-5-one]
> 75%: mortality at 800 ppm [1] | mortality at 800 ppm (Myzus persicae) | mortality at 800 ppm (Heliothis virescens) | mortality at 800 ppm (Anthonomus grandis) | mortality at 800 ppm (Aedes aegypti)

CCS(=O)(=O)c1cc(C(C)(C)C#N)cnc1-c1cn2c(=O)n(C3CC3)c(C(F)(F)F)cc2n1 [Compound C-4]
> 75%: mortality at 2500 ppm (Megoura viciae) | mortality at 800 ppm (Nezara viridula) | mortality at 800 ppm [1] | mortality at 2500 ppm [1] | mortality at 800 ppm (Myzus persicae; [2]) | mortality at 2500 ppm (Myzus persicae; [3]) | mortality at 2500 ppm (Heliothis virescens; 5 days) | mortality at 2500 ppm (Anthonomus grandis; 5 days) | mortality at 800 ppm (Aedes aegypti)

CCS(=O)(=O)c1cc(C(C)(C)C#N)cnc1-c1cn2c(=O)n(CC3CC3)c(C(F)(F)F)cc2n1 [Compound C-7]
> 75%: mortality at 800 ppm (Nezara viridula) | mortality at 800 ppm (Myzus persicae; [2]) | mortality at 800 ppm (Heliothis virescens; 800 ppm, 5 days) | mortality at 800 ppm (Anthonomus grandis; 800 ppm, 5 days) | mortality at 800 ppm (Aedes aegypti)

CCS(=O)(=O)c1cc(/C(C#N)=N/OC)cnc1-c1cn2c(=O)n(C3CC3)c(C(F)(F)F)cc2n1 [Compound C-9]
> 75%: mortality at 800 ppm (Nezara viridula) | mortality at 800 ppm (Myzus persicae; [2]) | mortality at 800 ppm (Heliothis virescens; 800 ppm, 5 days) | mortality at 800 ppm (Anthonomus grandis; 800 ppm, 5 days) | mortality at 800 ppm (Aedes aegypti)

CCS(=O)(=O)c1cc(/C=N/O)cnc1-c1cn2c(=O)n(C3CC3)c(C(F)(F)F)cc2n1 [Compound C-23, (3E)-6-[6-cyclopropyl-5-oxo-7-(trifluoromethyl)imidazo[1,2-c]pyrimidin-2-yl]-5-ethylsulfonyl-pyridine-3-carbaldehyde oxime]
> 75%: mortality at 800 ppm (Nezara viridula) | mortality at 800 ppm (Myzus persicae; [2])

CCS(=O)(=O)c1cc(C(C)(C)C#N)cnc1-c1cn2c(=O)n(C)c(C(F)(F)F)cc2n1 [Compound C-5, 2-[5-ethylsulfonyl-6-[6-methyl-5-oxo-7-(trifluoromethyl)imidazo[1,2-c]pyrimidin-2-yl]-3-pyridyl]-2-methyl-propanenitrile]
> 75%: mortality at 800 ppm (Nezara viridula) | mortality at 2500 ppm [1] | mortality at 2500 ppm (Myzus persicae; [3]) | mortality at 2500 ppm (Heliothis virescens; 5 days) | mortality at 2500 ppm (Anthonomus grandis; 5 days)

CCS(=O)(=O)c1cc(/C=N/OC)cnc1-c1cn2c(=O)n(C)c(C(F)(F)F)cc2n1 [Compound C-1]
> 75%: mortality at 2500 ppm (Megoura viciae) | mortality at 800 ppm (Nezara viridula) | mortality at 2500 ppm (Myzus persicae; [3]) | mortality at 2500 ppm (Heliothis virescens; 5 days) | mortality at 2500 ppm (Anthonomus grandis; 5 days) | mortality at 800 ppm (Aedes aegypti)

CCO/N=C/c1cnc(-c2cn3c(=O)n(C4CC4)c(C(F)(F)F)cc3n2)c(S(=O)(=O)CC)c1 [Compound C-14]
> 75%: mortality at 800 ppm (Nezara viridula) | mortality at 800 ppm (Myzus persicae; [2]) | mortality at 800 ppm (Heliothis virescens; 800 ppm, 5 days) | mortality at 800 ppm (Anthonomus grandis; 800 ppm, 5 days) | mortality at 800 ppm (Aedes aegypti)

CCS(=O)(=O)c1cc(/C(C#N)=N/OCC(F)(F)F)cnc1-c1cn2c(=O)n(C3CC3)c(C(F)(F)F)cc2n1 [Compound C-10]
> 75%: mortality at 800 ppm (Nezara viridula) | mortality at 800 ppm (Myzus persicae; [2]) | mortality at 800 ppm (Heliothis virescens; 800 ppm, 5 days) | mortality at 800 ppm (Anthonomus grandis; 800 ppm, 5 days) | mortality at 800 ppm (Aedes aegypti)

CCS(=O)(=O)c1cc(C2(C#N)CC2)cnc1-c1cn2c(=O)n(C3CC3)c(C(F)(F)F)cc2n1 [Compound C-6, 1-[6-[6-cyclopropyl-5-oxo-7-(trifluoromethyl)imidazo[1,2-c]pyrimidin-2-yl]-5-ethylsulfonyl-3-pyridyl]cyclopropanecarbonitrile]
> 75%: mortality at 800 ppm (Nezara viridula) | mortality at 800 ppm [1] | mortality at 800 ppm (Heliothis virescens; 800 ppm, 5 days) | mortality at 800 ppm (Anthonomus grandis; 800 ppm, 5 days) | mortality at 800 ppm (Aedes aegypti)

CCS(=O)(=O)c1cc(/C(C#N)=N/OCC#N)cnc1-c1cn2c(=O)n(C3CC3)c(C(F)(F)F)cc2n1 [Compound C-12]
> 75%: mortality at 800 ppm (Myzus persicae; [2]) | mortality at 800 ppm (Anthonomus grandis; 800 ppm, 5 days) | mortality at 800 ppm (Aedes aegypti)

CCS(=O)(=O)c1cc(/C(C#N)=N/O)cnc1-c1cn2c(=O)n(C3CC3)c(C(F)(F)F)cc2n1 [Compound C-8, (2Z)-2-[6-[6-cyclopropyl-5-oxo-7-(trifluoromethyl)imidazo[1,2-c]pyrimidin-2-yl]-5-ethylsulfonyl-3-pyridyl]-2-hydroxyimino-acetonitrile]
> 75%: mortality at 800 ppm (Myzus persicae; [2])

CCS(=O)(=O)c1cc(/C=N/OCC(F)(F)F)cnc1-c1cn2c(=O)n(C)c(C(F)(F)F)cc2n1 [Compound C-3, 2-[3-ethylsulfonyl-5-[(E)-2,2,2-trifluoroethoxyiminomethyl]-2-pyridyl]-6-methyl-7-(trifluoromethyl)imidazo[1,2-c]pyrimidin-5-one]
> 75%: mortality at 2500 ppm (Megoura viciae) | mortality at 800 ppm (Nezara viridula) | mortality at 2500 ppm (Myzus persicae; [3]) | mortality at 2500 ppm (Heliothis virescens; 5 days) | mortality at 2500 ppm (Anthonomus grandis; 5 days) | mortality at 800 ppm (Aedes aegypti)

CCS(=O)(=O)c1cc(/C=N/OCC(F)(F)F)cnc1-c1cn2c(=O)n(C3CC3)c(C(F)(F)F)cc2n1 [Compound C-16]
> 75%: mortality at 800 ppm [1] | mortality at 800 ppm (Myzus persicae; [2]) | mortality at 800 ppm (Heliothis virescens; 800 ppm, 5 days) | mortality at 800 ppm (Anthonomus grandis; 800 ppm, 5 days)

CCS(=O)(=O)c1cc(/C=N/OC(C)C)cnc1-c1cn2c(=O)n(C3CC3)c(C(F)(F)F)cc2n1 [Compound C-15]
> 75%: mortality at 800 ppm (Nezara viridula) | mortality at 800 ppm [1] | mortality at 800 ppm (Myzus persicae; [2]) | mortality at 800 ppm (Heliothis virescens; 800 ppm, 5 days) | mortality at 800 ppm (Anthonomus grandis; 800 ppm, 5 days)

CCS(=O)(=O)c1cc(/C=N/O)cnc1-c1cn2c(=O)n(C)c(C(F)(F)F)cc2n1 [Compound C-2]
> 75%: mortality at 2500 ppm (Myzus persicae; [3]) | mortality at 2500 ppm (Heliothis virescens; 5 days) | mortality at 2500 ppm (Anthonomus grandis; 5 days)
